These results are taken from patent US6552080B1, “Fungicidal compounds having a fluorovinyl-or fluoropropenyl-oxyphenyloxime moiety and process for the preparation thereof” (Korea Research Institute of Chemical Technology, priority 1999, dated 2003).

One assay concerns Erysiphae graminis. Description: Fungicidal activity against Barley Powdery Mildew (BPM) disease. The class given is in vivo. As to conditions: for BPM (Fungicidal Activities, C.V.): Barley Powdery Mildew.
A further assay deals with Botrytis cinerae. Description: Fungicidal activity against Cucumber Gray Mold Rot (CGM) disease. The class given is in vivo. As to conditions: for CGM (Fungicidal Activities, C.V.): Cucumber Gray Mold Rot, concentration 50 ppm; for Fungicidal Activities CGM (C.V.): 50 ppm.
The subject of assay [1] is Pyricularia oryzae Carvara KA301. The format is in vivo. The note with it: for RCV (Fungicidal Activities, C.V.): Rice Blast.
The test system of a further assay is Puccinia recondita. The assay can be described thus: Fungicidal activity against Wheat Leaf Rust (WLR) disease. The class given is in vivo. The note with it: for WLR (Fungicidal Activities, C.V.): Wheat Leaf Rust.
The next assay has as its system Phytophthora infestans. The class given is in vivo. The note with it: for TLB (Fungicidal Activities, C.V.): Tomato Late Blight, concentration 50 ppm; for Fungicidal Activities TLB (C.V.): 50 ppm.
The next assay relates to Rhizoctonia solani AG-1. Description: Fungicidal activity against Rice Sheath Blight (RSB) disease. The note with it: for RSB (Fungicidal Activities, C.V.): Rice Sheath Blight, concentration 50 ppm.

Like-named read-outs stand apart in the source and are kept apart here.

For the compound `COC=C(C(=O)OC)c1ccccc1CON=C(C)c1cccc(OC(F)=C(c2cccc(F)c2)C(F)(F)F)c1` [Compound 159], the “BPM (Fungicidal Activities, C.V.)” value in the assay with Erysiphae graminis (concentration 2 ppm) is on record as 99%; with Erysiphae graminis (concentration 10 ppm), 100%; in the assay with Erysiphae graminis (concentration 50 ppm), 100%. For the same compound, in the assay with Botrytis cinerae, the “CGM (Fungicidal Activities, C.V.)” value was 52%. Further, the “RCV (Fungicidal Activities, C.V.)” value in assay [1] (concentration 2 ppm) is listed as 25%; in assay [1] (concentration 10 ppm) it was 91%; in assay [1] (concentration 50 ppm), 96%. Moreover, the “WLR (Fungicidal Activities, C.V.)” value in the assay with Puccinia recondita (concentration 2 ppm) worked out at 94%; in the assay on Puccinia recondita (concentration 10 ppm), 100%; in the assay on Puccinia recondita (concentration 50 ppm), 100%. Moreover, in the assay with Phytophthora infestans, the “TLB (Fungicidal Activities, C.V.)” value worked out at 20%. For the same compound, in the assay with Rhizoctonia solani AG-1, the “RSB (Fungicidal Activities, C.V.)” value is given as 65%.

In the case of `COC=C(C(=O)OC)c1ccccc1CON=C(C)c1cccc(OC(F)=C(c2ccc(F)cc2)C(F)(F)F)c1` [Compound 160], the “Fungicidal Activities BPM (C.V.)” value with Erysiphae graminis (2 ppm) stood at 99%. Moreover, the “BPM (Fungicidal Activities, C.V.)” value in the assay on Erysiphae graminis (concentration 10 ppm) and in the assay with Erysiphae graminis (concentration 50 ppm) was 100% throughout. Moreover, in the assay with Botrytis cinerae, the “CGM (Fungicidal Activities, C.V.)” value was 36%. For the same compound, in assay [1] (2 ppm), the “Fungicidal Activities RCV (C.V.)” value was determined as 86%. The “RCV (Fungicidal Activities, C.V.)” value in assay [1] (concentration 10 ppm) and in assay [1] (concentration 50 ppm) was 100% throughout. Also, in the assay with Puccinia recondita (2 ppm), the “Fungicidal Activities WLR (C.V.)” value worked out at 99%. The “WLR (Fungicidal Activities, C.V.)” value in the assay on Puccinia recondita (concentration 10 ppm) and in the assay with Puccinia recondita (concentration 50 ppm) was 100% in each case. Moreover, the “TLB (Fungicidal Activities, C.V.)” value with Phytophthora infestans is recorded as 92%. In addition, the “RSB (Fungicidal Activities, C.V.)” value in the assay with Rhizoctonia solani AG-1 was found to be 70%.

With `COC=C(C(=O)OC)c1ccccc1CON=C(C)c1cccc(OC(F)=C(c2ccc(Cl)cc2)C(F)(F)F)c1` [Compound 163], the “Fungicidal Activities BPM (C.V.)” value is given as 94% in the assay with Erysiphae graminis (2 ppm), 100% with Erysiphae graminis (10 ppm) and 100% in the assay on Erysiphae graminis (50 ppm). The “Fungicidal Activities CGM (C.V.)” value with Botrytis cinerae is 51%. Further, the “Fungicidal Activities RCV (C.V.)” value in assay [1] (2 ppm) is reported as 58%; in assay [1] (10 ppm), 86%; in assay [1] (50 ppm), 90%. The “Fungicidal Activities WLR (C.V.)” value in the assay with Puccinia recondita (2 ppm) worked out at 86%; with Puccinia recondita (10 ppm) it was 98%; in the assay with Puccinia recondita (50 ppm), 100%. Besides, in the assay on Phytophthora infestans, the “Fungicidal Activities TLB (C.V.)” value stood at 12%. The “Fungicidal Activities RSB (C.V.)” value with Rhizoctonia solani AG-1 (2 ppm) amounted to 40%; in the assay with Rhizoctonia solani AG-1 (10 ppm), 40%; in the assay on Rhizoctonia solani AG-1 (50 ppm), 92%.

As to `COC=C(C(=O)OC)c1ccccc1CON=C(C)c1cccc(OC(F)=C(c2cc(Cl)cc(Cl)c2)C(F)(F)F)c1` [Compound 164], the “Fungicidal Activities BPM (C.V.)” value is given as 71% in the assay on Erysiphae graminis (2 ppm), 99% in the assay with Erysiphae graminis (10 ppm) and 100% in the assay on Erysiphae graminis (50 ppm). Further, the “Fungicidal Activities CGM (C.V.)” value with Botrytis cinerae is on record as 36%. Further, in assay [1] (50 ppm), the “Fungicidal Activities RCV (C.V.)” value is given as 41%. Also, the “Fungicidal Activities WLR (C.V.)” value with Puccinia recondita (2 ppm) is on record as 60%; in the assay on Puccinia recondita (10 ppm), 95%; in the assay on Puccinia recondita (50 ppm), 96%. Also, the “Fungicidal Activities TLB (C.V.)” value with Phytophthora infestans is 0%. Further, the “Fungicidal Activities RSB (C.V.)” value with Rhizoctonia solani AG-1 (50 ppm) came to 20%.

As to `COC=C(C(=O)OC)c1ccccc1CON=C(C)c1cccc(OC(F)=C(c2ccc(Br)cc2)C(F)(F)F)c1` [Compound 165], the results for the “Fungicidal Activities BPM (C.V.)” value in the assay with Erysiphae graminis (2 ppm), with Erysiphae graminis (10 ppm) and with Erysiphae graminis (50 ppm) were 71%, 99% and 100%, respectively. For the same compound, the “Fungicidal Activities CGM (C.V.)” value in the assay on Botrytis cinerae worked out at 68%. The “Fungicidal Activities RCV (C.V.)” value in assay [1] (50 ppm) is listed as 80%. Moreover, the “Fungicidal Activities WLR (C.V.)” value in the assay with Puccinia recondita (2 ppm) is listed as 86%; in the assay on Puccinia recondita (10 ppm) it was 96%; in the assay on Puccinia recondita (50 ppm), 100%. For the same compound, the “Fungicidal Activities TLB (C.V.)” value in the assay on Phytophthora infestans is given as 6%. In addition, the “Fungicidal Activities RSB (C.V.)” value with Rhizoctonia solani AG-1 (50 ppm) is reported as 45%.

Turning to `CON=C(C(=O)OC)c1ccccc1CON=C(C)c1cccc(OC(F)=C(c2ccccc2)C(F)(F)F)c1` [Compound 173], the figures for the “Fungicidal Activities BPM (C.V.)” value in the assay on Erysiphae graminis (2 ppm) and in the assay on Erysiphae graminis (50 ppm) were 99% and 100%, respectively. Further, in the assay with Botrytis cinerae, the “Fungicidal Activities CGM (C.V.)” value turned out to be 25%. Moreover, the “Fungicidal Activities RCV (C.V.)” value in assay [1] (2 ppm) is 93%; in assay [1] (50 ppm), 97%. The “Fungicidal Activities WLR (C.V.)” value in the assay on Puccinia recondita (2 ppm) came out at 99%; in the assay with Puccinia recondita (50 ppm) it was 100%. The “Fungicidal Activities TLB (C.V.)” value in the assay on Phytophthora infestans was 20%. In addition, the “Fungicidal Activities RSB (C.V.)” value with Rhizoctonia solani AG-1 (2 ppm) is given as 30%; with Rhizoctonia solani AG-1 (50 ppm) it was 100%.

For the compound `CON=C(C(=O)OC)c1ccccc1CON=C(C)c1cccc(OC(F)=C(c2cccc(C)c2)C(F)(F)F)c1` [Compound 174], the “Fungicidal Activities BPM (C.V.)” value in the assay on Erysiphae graminis (2 ppm) is given as 99%; in the assay with Erysiphae graminis (50 ppm), 100%. For the same compound, the “Fungicidal Activities CGM (C.V.)” value in the assay on Botrytis cinerae is 0%. Further, the figures for the “Fungicidal Activities RCV (C.V.)” value in assay [1] (2 ppm) and in assay [1] (50 ppm) were 86% and 96%, respectively. The “Fungicidal Activities WLR (C.V.)” value in the assay with Puccinia recondita (2 ppm) is 90%; in the assay with Puccinia recondita (50 ppm) it was 100%. The “Fungicidal Activities TLB (C.V.)” value with Phytophthora infestans is given as 0%. Moreover, the “Fungicidal Activities RSB (C.V.)” value with Rhizoctonia solani AG-1 (2 ppm) is on record as 25%; in the assay with Rhizoctonia solani AG-1 (50 ppm), 60%.

Consider `CON=C(C(=O)OC)c1ccccc1CON=C(C)c1cccc(OC(F)=C(c2ccc(C)cc2)C(F)(F)F)c1` [Compound 175], for which the “Fungicidal Activities BPM (C.V.)” value with Erysiphae graminis (2 ppm) turned out to be 83%; with Erysiphae graminis (50 ppm), 100%. In addition, in the assay on Botrytis cinerae, the “Fungicidal Activities CGM (C.V.)” value is given as 12%. The results for the “Fungicidal Activities RCV (C.V.)” value in assay [1] (2 ppm) and in assay [1] (50 ppm) were 76% and 96%, respectively. The “Fungicidal Activities WLR (C.V.)” value is 86% in the assay on Puccinia recondita (2 ppm) and 100% in the assay with Puccinia recondita (50 ppm). The “Fungicidal Activities TLB (C.V.)” value with Phytophthora infestans was determined as 0%. Besides, the “Fungicidal Activities RSB (C.V.)” value in the assay with Rhizoctonia solani AG-1 (2 ppm) amounted to 10%; in the assay with Rhizoctonia solani AG-1 (50 ppm), 65%.

For `CON=C(C(=O)OC)c1ccccc1CON=C(C)c1cccc(OC(F)=C(c2ccc(C)c(C)c2)C(F)(F)F)c1` [Compound 176], the “Fungicidal Activities BPM (C.V.)” value is 80% in the assay on Erysiphae graminis (2 ppm) and 100% with Erysiphae graminis (50 ppm). Further, the “Fungicidal Activities CGM (C.V.)” value with Botrytis cinerae was found to be 12%. Also, the “Fungicidal Activities RCV (C.V.)” value in assay [1] (2 ppm) worked out at 83%; in assay [1] (50 ppm) it was 86%. For the same compound, the “Fungicidal Activities WLR (C.V.)” value in the assay on Puccinia recondita (2 ppm) came out at 60%; in the assay with Puccinia recondita (50 ppm), 100%. Besides, the “Fungicidal Activities TLB (C.V.)” value in the assay on Phytophthora infestans is recorded as 70%. The “Fungicidal Activities RSB (C.V.)” value with Rhizoctonia solani AG-1 (2 ppm) worked out at 20%; in the assay on Rhizoctonia solani AG-1 (50 ppm), 60%.

For `CON=C(C(=O)OC)c1ccccc1CON=C(C)c1cccc(OC(F)=C(c2cccc(OC)c2)C(F)(F)F)c1` [Compound 180], the “Fungicidal Activities BPM (C.V.)” value with Erysiphae graminis (2 ppm) is given as 98%; with Erysiphae graminis (50 ppm), 100%. Moreover, in the assay with Botrytis cinerae, the “Fungicidal Activities CGM (C.V.)” value is 56%. The “Fungicidal Activities RCV (C.V.)” value in assay [1] (2 ppm) was found to be 86%; in assay [1] (50 ppm) it was 100%. For the same compound, the figures for the “Fungicidal Activities WLR (C.V.)” value with Puccinia recondita (2 ppm) and in the assay with Puccinia recondita (50 ppm) were 97% and 100%, respectively. Also, the “Fungicidal Activities TLB (C.V.)” value with Phytophthora infestans is 56%. Further, the “Fungicidal Activities RSB (C.V.)” value in the assay with Rhizoctonia solani AG-1 (2 ppm) was determined as 25%; in the assay with Rhizoctonia solani AG-1 (50 ppm), 60%.
